Target: T1, succinate receptor 1 (SUCNR1; GPR91) (Mus musculus, UniProt Q99MT6)
T1 construct: native receptor in tracheal TRPM5+ brush cells (ex vivo whole mount)
T1 sequence (Q99MT6 1-317): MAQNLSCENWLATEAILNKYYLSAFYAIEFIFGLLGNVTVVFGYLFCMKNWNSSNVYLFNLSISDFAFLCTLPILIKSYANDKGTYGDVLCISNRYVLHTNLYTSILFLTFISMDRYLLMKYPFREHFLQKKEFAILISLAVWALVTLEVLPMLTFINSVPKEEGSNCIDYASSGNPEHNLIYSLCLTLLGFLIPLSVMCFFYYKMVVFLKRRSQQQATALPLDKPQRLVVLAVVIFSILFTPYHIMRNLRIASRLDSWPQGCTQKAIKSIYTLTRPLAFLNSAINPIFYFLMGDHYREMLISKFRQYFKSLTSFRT
Assay: Ca2+ imaging (GCaMP6f) concentration-response in brush cells; Ca2+ wave lost in Sucnr1-/- mice

EC50: 335 ± 5 µM
Compound: O=C(O)CCC(=O)O [succinate]
